According to PubChem BioAssay (NCI):
Where “and” joins values, the source holds several entries; their conditions need not be identical. Equal values may be shown once.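 48-hour exposure; five concentrations; linearly interpolated endpoints. At the GI50, growth is halved. TGI: concentration producing complete growth inhibition.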

How the values were obtained:
Test in all cases: NCI anticancer screen, dose series, 48 h
[1] = tested on: OVCAR-8 ovarian
[2] = tested on: SNB-19 CNS
[3] = tested on: NCI-H226 lung
[4] = tested on: U251 CNS
[5] = tested on: 786-0 renal
[6] = tested on: IGROV1 ovarian
[7] = tested on: BT-549 breast
[8] = tested on: NCI/ADR-RES ovarian
[9] = tested on: MDA-MB-435
[10] = tested on: MCF7 breast

Compound	TGI [1]	TGI [2] [µM]	TGI [3]	TGI [4]	TGI [5] [µM]	TGI [6] [µM]	GI50 [7] [µM]	TGI [7] [µM]	GI50 [8] [µM]	TGI [8] [µM]	GI50 [9] [µM]	TGI [9] [µM]	GI50 [1] [µM]	GI50 [2] [µM]	GI50 [3] [µM]	GI50 [10] [µM]	TGI [10] [µM]	GI50 [4] [µM]	GI50 [5] [µM]	GI50 [6] [µM]
COc1ccc(NC(=O)C(=O)NNC(=O)c2sc(NNC(C)=O)nc2C)c([N+](=O)[O-])c1	> 100 µM	> 100	> 100 µM	> 100 µM	> 100															
CC1CCCC(C(O)CC2CC(=O)N(c3ccccc3)C(=O)C2)C1=O (stereo unspecified)	> 100 µM	> 100	> 100 µM	> 100 µM	> 100	> 100														
CC(=O)O[C@H]1[C@@H]2[C@@H]3[C@@H](C[C@H]1C)[C@@H](C)CO[C@@]1(C)CC/C=C(/C)C[C@@H]2O[C@@H]31	> 100 µM	> 100	> 100 µM	> 100 µM	> 100	> 100														
CC1=C(C(=O)Nc2ccccc2C)C(c2ccc([N+](=O)[O-])cc2)C(C(=O)Nc2ccccc2C)=C(C)N1	> 100 µM	> 100	> 100 µM	> 100 µM	> 100	> 100														
C=C(CN(CC(=C)C(=O)c1ccccc1)C(C)(C)C)C(=O)c1ccccc1	67.9 µM	> 59.9	48.4 µM	39.4 µM	24.5	40.3														
Cc1ccc(NC(=O)CC(=O)n2nc(-c3ccccc3)c(N=Nc3ccc(Cl)cc3)c2-c2ccccc2)cc1	60.6 µM	> 100	> 100 µM		45.2	> 100														
CC12O[C@H](c3ccccc3)[C@H](c3ccccc3)N1C(=O)C1(C(=O)OCc3ccccc3)CC12 (stereo partly specified)	> 100 µM	> 100	> 100 µM		> 100	> 100														
COc1cc(/C=C/C(=O)c2cc(F)c(Cl)cc2Cl)cc(OC)c1OC	33.6 µM	> 100	> 100 µM	> 100 µM	97.2		53.2	> 100	23.9	83.8	28.1	> 100	15.8	39.6	79.9	32.3	> 100	29.3	22.9	
FC(F)(F)c1ccc(C=NC23CC4CC(CC(C4)C2)C3)cc1	> 100 µM	> 100	> 100 µM	> 100 µM	> 100	> 100														
CCc1cccc(C(C)C)c1NC(=O)C(=O)C(C(=O)C(=O)OC)c1nc2ccccc2[nH]c1=O (stereo unspecified)	> 100 µM	> 100	> 100 µM	> 100 µM	> 100	> 100														
CO[C@H]1[C@H](O)[C@H](O[C@H]2CC[C@@]3(C)[C@H](CC[C@@H]4[C@@H]3CC[C@]3(C)[C@@H](C5=CC(=O)OC5)CC[C@]43O)C2)O[C@@H](C)[C@@H]1O	0.00572 µM and 0.0113 µM	0.00324	0.0192 µM and < 0.0129 µM	0.00385 µM and 0.0152 µM	0.000687			0.000665		0.00115		< 0.0001					0.0288			
N/N=C1\c2ccccc2C2/C(=N\N)c3ccccc3C12 (stereo unspecified)	> 100 µM	> 100		> 100 µM	> 100	> 100														
C=CCNC1=C(C(=O)OCC)C(=O)CO1	> 100 µM	> 100	> 100 µM	> 100 µM	> 100	> 100														
CCC(C(=O)[O-])C(=O)[O-].CCC(C(=O)[O-])C(=O)[O-].N.N.NCCCCCN.[Pt+4].[Pt+4]	> 100 µM	> 100	94.7 µM	> 100 µM	> 100	> 100							> 100	> 100	23.4			> 100	> 100	> 100
